Experimental data as given in ChEMBL document CHEMBL4251642 (Eur J Med Chem, 2018).
pEC50: −log10 of the molar value. Active and inactive are the calls of the source. No cut-off for these calls is given here.

Assays:
Influenza A virus [1] = assay: Antiviral activity against Influenza A virus (A/WSN/1933(H1N1)) harboring neuraminidase H275Y mutant infected in BALB/c mouse assessed as mouse survival at 0.96 umol/day, po for 5 consecutive days measured on day 14 post dose; assay type: functional
Influenza A virus [2] = assay: Antiviral activity against Influenza A virus (A/WSN/1933(H1N1)) harboring neuraminidase H275Y mutant infected in MDCK cells assessed as inhibition of virus-induced cytopathic effect after 48 hrs by CellTiter96 Aqueous non-radioactive cell proliferation assay; assay type: functional, organism-based
Influenza A virus [3] = assay: Antiviral activity against Influenza A virus (A/WSN/1933(H1N1)) harboring neuraminidase H275Y mutant infected in BALB/c mouse assessed as recovery of mouse weight at 0.96 umol/day, po for 5 consecutive days measured on day 14 post dose; assay type: functional, organism-based
Mus musculus = assay: Toxicity in BALB/c mouse infected with Influenza A virus (A/WSN/1933(H1N1)) harboring neuraminidase H275Y mutant assessed as change in body weight at 0.96 umol/day, po for 5 consecutive days; assay type: organism-based; details: in vivo
Influenza A virus [4] = assay: Antiviral activity against Influenza A virus (A/WSN/1933(H1N1)) harboring neuraminidase H275Y mutant infected in BALB/c mouse assessed as mouse survival at 0.96 umol/day, po for 5 consecutive days measured on day 10 post dose; assay type: functional

SMILES | Survival (Influenza A virus [1]) [%] | pEC50 (Influenza A virus [2]) | Activity (Influenza A virus [3]) | Activity (Mus musculus) | Survival (Influenza A virus [4]) [%] | Activity (Influenza A virus [1])
CCC(CC)[C@H](NC(C)=O)[C@@H]1[C@H](OC(=O)NCCCNC(=O)/C=C/c2ccc(O)c(O)c2)[C@@H](C(=O)O)C[C@H]1NC(=N)N | 90 | 7.74 | Active | Non-Toxic |  | 
CCC(CC)[C@H](NC(C)=O)[C@@H]1[C@H](OC(=O)NCCCN)[C@@H](C(=O)O)C[C@H]1NC(=N)N |  | 6.39 |  |  |  | 
CCC(CC)[C@H](NC(C)=O)[C@@H]1[C@H](O)[C@@H](C(=O)O)C[C@H]1NC(=N)N [PERAMIVIR ANHYDROUS] |  | 6.19 |  |  |  | 
CCC(CC)[C@H](NC(C)=O)[C@@H]1[C@H](OC(=O)NCCCO)[C@@H](C(=O)O)C[C@H]1NC(=N)N |  | 6.00 |  |  |  | 
CCOC(=O)C1=C[C@@H](OC(CC)CC)[C@H](NC(C)=O)[C@@H](N)C1 [OSELTAMIVIR] |  |  |  |  | 20 | 
CCC(CC)[C@H](NC(C)=O)[C@@H]1[C@H](OC(=O)NCCCOC(=O)/C=C/c2ccc(O)c(O)c2)[C@@H](C(=O)O)C[C@H]1NC(=N)N |  | 7.81 | Active | Non-Toxic |  | Active
CCC(CC)[C@H](NC(C)=O)[C@@H]1[C@H](OC(=O)NCCCOCCCc2ccc(O)c(O)c2)[C@@H](C(=O)O)C[C@H]1NC(=N)N |  | 7.15 | Active | Non-Toxic |  | Active
CCC(CC)OC1C=C(C(=O)O)C[C@H](N)[C@H]1NC(C)=O (some centres not stated) |  | 5.45 |  |  |  | 
